The conditions of data set [1]: ref Coluccio and Tilney, 1984; cited from earlier work. The text has this:
Phalloidin, a cyclic peptide derived from the fungus Amanita phalloides, was one of the first probes used for F-actin labeling ([Wehland et al., 1977]; [Wulf et al., 1979]). […] The need to visualize actin dynamics led to the development of genetically encoded fluorescent probes. Chimeras of green fluorescent protein ...

For data set [2], the system named is F-actin. As to conditions: ref Melak et al., 2017; cited from earlier work. The text has this:
Phalloidin, a cyclic peptide derived from the fungus Amanita phalloides, was one of the first probes used for F-actin labeling ([Wehland et al., 1977]; [Wulf et al., 1979]). […] The need to visualize actin dynamics led to the development of genetically encoded fluorescent probes. Chimeras of green fluorescent protein ... || In live cell imaging experiments, F-tractin is typically used as a fusion of fluorescent proteins. […] However, a comparison of both markers has been largely limited to characterizations in cells ([Belin et al., 2014]; [Spracklen et al., 2014]; [Vosatka et al., 2022]). With structures of both probes in complex with F-actin available, we can now directly compare their actin interactions in atomic detail (Fig. 4, A–C). Both probes are at their core amphipathic helices that bind to overlapping interfaces of consecutive actin subunits, indicating a preference for “aged” A ...

For data set [3], the system named is actin (ADP-ribosylation by TcART, Photorhabdus luminescens). Put plainly: ADP-ribosylation of actin by TcART in presence of actin-binding peptides. Format: biochemical, rabbit skeletal muscle α-actin. As to conditions: for ADP-ribosylation level: relative to no peptide = 1, […] actin, 314 pM TcART, 10 min 37°C. As to the method: (§1) Rabbit skeletal muscle α-actin was purified from muscle acetone powder (Pel-Freez Biologicals) as described in [Merino et al. (2018)] and stored in 50 μl aliquots at −70°C.
TcART, the ADP-ribosyltransferase from P. luminescens Tc toxin, was purified from E. coli BL21-CodonPlus(DE3)-RIPL harboring the plasmid pB656 as described previously ([Belyy et al., 2022]).
A total of 8-μl mixtures of 2 μg (4.8 μM final concentration) actin and actin-binding peptides at specified concentrations were preincubated for 5 min at room temperature in the buffer containing 1 mM NAD, 20 mM Tris pH 8, 150 mM NaCl, and 1 mM MgCl2. The ADP ribosylation reaction was initiated by the addition of 0.2 ng (314 pM) of TcART to the mixture. After 10 min of incubation at 37°C, the reaction was stopped by adding Laemmli sample buffer and heating the sample at 95°C for 5 min. The components of the mixture were separated by SDS-PAGE, blotted onto a polyvinylidene difluoride (PVDF) membrane using a Trans-Blot Turbo Transfer System (Bio-Rad), and visualized using a combination of the His-tagged ADP-ribose binding protein at the concentration of 0.01 mg/ml and HisProbe-HRP conjugate. The level of actin ADP-ribosylation was quantified by densitometry using ImageJ.

Data set [4] concerns F-actin. The experiment in a line: Actin bundling assay using low-speed centrifugation (10,000 g). Format: biochemical, rabbit skeletal muscle α-actin. As to conditions: for F-actin in the pellet: 10 μM actin filaments, 5 min RT, 10,000 g. The method, then: as §1
8 μl of actin filaments at 10 μM were mixed with peptides at the specified concentration, incubated for 5 min at room temperature, and spun down at 10,000 g for 10 min at 4°C. Aliquots of the supernatant and resuspended pellet fractions were separated on SDS-polyacrylamide gels with 2,2,2-trichloroethanol ([Ladner-Keay et al., 2018]) and visualized with ultraviolet light.

In data set [5] the test system is actin filaments. As to conditions: ref Belyy et al., 2020, Kumari et al.; cited from earlier work. The source says: (§2) To minimize steric clashes of large probes, small fluorophore-labeled peptides have been developed. The most commonly used is Lifeact, a 17-amino acid peptide derived from the N-terminus of the Saccharomyces cerevisiae actin-binding protein 140 (Abp140).

For data set [6], the system named is actin-dependent morphogenesis. As to conditions: certain experimental systems: yeast, Drosophila, C. elegans, zebrafish, mammalian cells; ref Courtemanche et al., 2016; Spracklen et al., 2014; Ono, 2024; Xu and Du, 2021; Flores et al., 2019; cited from earlier work.
Text: as §2

Data set [7] deals with F-actin. Put plainly: Cryo-EM of peptide mixed with F-actin. It is filed as binding, rabbit skeletal muscle α-actin. As to the method:
as §1
Actin filaments were prepared as for cosedimentation assays. Shortly before plunging, F-actin was diluted to 6 µM with F-buffer. […] 3 μl of sample was applied onto a freshly glow-discharged copper R2/1 300 mesh grid (Quantifoil), blotted for 8 s on both sides with blotting force −15, and plunge-frozen in liquid ethane using the Vitrobot Mark IV system (Thermo Fisher Scientific) at 13°C and 100% humidity.
The datasets were collected using a Talos Arctica transmission electron microscope (Thermo Fisher Scientific) equipped with an XFEG at 200 kV using the automated data-collection software EPU version 2.7 (Thermo Fisher Scientific). Two images per hole with a defocus range of −0.5 to −2.5 µm were collected with a K3 detector (Gatan) operated in super-resolution mode. […] After motion correction was performed in Relion (RRID:SCR_016274) version 3.1, the micrographs were imported into Cryosparc for patch CTF estimation. […]
Before deposition, the structures were refined in real space in Phenix (RRID:SCR_014224) ([Liebschner et al., 2019]) with secondary structure and reference model restraints. The statistics presented in Table 1 were calculated by MolProbity (RRID:SCR_014226) ([Williams et al., 2018]).

The test system of data set [8] is cells. As to conditions: ref Vosatka et al., 2022; cited from earlier work. The text has this: (§3) However, in Xenopus XTC cells, expr ...
The subject of data set [9] is Drosophila. As to conditions: ref Spracklen et al., 2014; cited from earlier work.
Text: as §3

The test system of data set [10] is Xenopus XTC cells. As to conditions: ref Belin et al., 2014; cited from earlier work.
Text: as §3

The subject of data set [11] is primary neurons. As to conditions: ref Patel et al., 2017; cited from earlier work.
Text: as §3

Consider Phalloidin, for which the membrane permeability entry in [1] is on record as “low membrane permeability”. Moreover, in data set [2], the “affinity and selectivity for F-actin” value was “high affinity and selectivity for F-actin”.

“Lifeact: 17-amino acid peptide derived from the N-terminus of Saccharomyces cerevisiae actin-binding protein 140 (Abp140) [reference compound]”: the ADP-ribosylation level in data set [3] (peptide 1 µM, Repeat 1) is reported as 0,978733; in [3] (peptide 1 µM, Repeat 2) it was 0,811616; in data set [3] (peptide 1 µM, Repeat 3), 1,268379; in data set [3] (peptide 3 µM, Repeat 1), 0,825802; in data set [3] (peptide 3 µM, Repeat 2), 0,671345; in data set [3] (peptide 3 µM, Repeat 3), 1,323177. For the same substance, the ADP-ribosylation level in [3] (peptide 10 µM, Repeat 1) was 0,671724; in data set [3] (peptide 10 µM, Repeat 2) it was 1,132312; in data set [3] (peptide 10 µM, Repeat 3), 0,970817; in data set [3] (peptide 30 µM, Repeat 1), 0,313245; in data set [3] (peptide 30 µM, Repeat 2), 0,438167; in data set [3] (peptide 30 µM, Repeat 3), 0,331448. Also, the ADP-ribosylation level in data set [3] (peptide 100 µM, Repeat 1) is 0; in data set [3] (peptide 100 µM, Repeat 2) it was 0,032044; in [3] (peptide 100 µM, Repeat 3), 0,093063. For the same substance, in data set [3] (peptides up to 100 µM), the “effect on TcART modification of F-actin (in words)” value is “inhibited TcART activity in a similar dose-dependent manner”. In addition, the “F-actin in the pellet” value in data set [4] (peptide 10 µM, Repeat 1) was 0,07218; in data set [4] (peptide 10 µM, Repeat 2), 0,09382; in data set [4] (peptide 10 µM, Repeat 3), 0,137443; in data set [4] (peptide 100 µM, Repeat 1), 0,1046; in [4] (peptide 100 µM, Repeat 2), 0,117135; in data set [4] (peptide 100 µM, Repeat 3), 0,14654. For the same substance, the “F-actin in the pellet” value is listed as 0,339777 in data set [4] (peptide 1000 µM, Repeat 1); 0,164721 in data set [4] (peptide 1000 µM, Repeat 2); 0,309232 in data set [4] (peptide 1000 µM, Repeat 3). The “competition for binding site on actin filaments” value in [5] was “competes with cofilin, myosin, and other actin-binding factors for the same binding site on actin filaments”. In addition, the “effect on actin-dependent morphogenesis” value in [6] is “dramatically altered actin-dependent morphogenesis”.

As to “MARPRGAGPCSPGLERAPRRSVGELRLLFEARCAAVAAAAAAG [F-tractin, 43 amino acid peptide, residues 10–52 of rat inositol 1,4,5-trisphosphate 3-kinase A; EGFP fusion in cell assays]”, in [7] (estimated from alignment-free 3D classification, 100 μM peptide), the “F-tractin occupancy on F-actin” value is ~ 50%. The “appearance of actin filaments by cryo-EM” value in data set [7] (preformed F-actin incubated with 100 μM peptide) is on record as “large heterogeneous bundles instead of single actin filaments”. The “actin bundling (in words)” value in data set [4] (in vitro, up to 100 µM, low-speed centrifugation and cryo-EM) is “strong bundling effect on F-actin”. Further, the “F-actin in the pellet” value is listed as 0,052087 in [4] (peptide 1 µM, Repeat 1); 0,032888 in data set [4] (peptide 1 µM, Repeat 2); 0,047528 in [4] (peptide 1 µM, Repeat 3); 0,092603 in data set [4] (peptide 10 µM, Repeat 1); 0,600815 in data set [4] (peptide 10 µM, Repeat 2); 0,323365 in [4] (peptide 10 µM, Repeat 3). Besides, the “F-actin in the pellet” value is listed as 0,999376 in data set [4] (peptide 100 µM, Repeat 1); 0,989657 in [4] (peptide 100 µM, Repeat 2); 0,931572 in data set [4] (peptide 100 µM, Repeat 3). Besides, the “cell stiffness and cell migration” value in data set [8] was “increase in cell stiffness and reduction in cell migration”. The “effect on fertility and actin in Drosophila oogenesis” value in data set [9] is “without causing female sterility or significant actin defects”. Also, the “effect of expression on actin structures” value in [10] was “induced radial actin bundles and longer filopodia”. The “reporting on F-actin organization in primary neurons” value in [11] is “without notable effects on cell function”.

The values are drawn from paper PMC11809415 (The Journal of Cell Biology, 2025).
